Experimental data reported in ChEMBL document CHEMBL1121750, “Adenosine deaminase inhibitors. Conversion of a single chiral synthon into erythro- and threo-9-(2-hydroxy-3-nonyl)adenines” (J Med Chem, 1981).

Target: T1, Adenosine deaminase (Homo sapiens, UniProt P00813)
T1 sequence (P00813 whole entry): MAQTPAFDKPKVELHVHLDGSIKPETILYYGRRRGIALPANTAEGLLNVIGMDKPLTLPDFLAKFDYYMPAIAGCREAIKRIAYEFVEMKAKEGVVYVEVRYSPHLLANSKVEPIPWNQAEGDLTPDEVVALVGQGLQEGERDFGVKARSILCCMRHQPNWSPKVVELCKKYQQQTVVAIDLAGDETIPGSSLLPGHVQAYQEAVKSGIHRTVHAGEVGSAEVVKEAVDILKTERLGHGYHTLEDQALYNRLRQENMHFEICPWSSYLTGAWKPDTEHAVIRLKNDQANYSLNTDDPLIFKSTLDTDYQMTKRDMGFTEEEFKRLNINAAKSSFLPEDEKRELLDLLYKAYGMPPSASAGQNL
Assay: Compound was evaluated for the inhibition of adenosine deaminase

| Ki | SMILES |
| --- | --- |
| 80 nM | CCCCCC[C@@H]([C@H](C)O)n1cnc2c(N)ncnc21 |
| 122 nM | CCCCCC[C@H]([C@@H](C)O)n1cnc2c(N)ncnc21 |
| 500 nM | CCCCCC[C@@H]([C@@H](C)O)n1cnc2c(N)ncnc21 (stereo in doubt; (-)) [EHNA] |
| 0.4 nM | CCCCCC[C@@H]([C@@H](C)O)n1cnc2c(N)ncnc21 (stereo in doubt; erythro) [EHNA] |
| 2 nM | CCCCCC[C@H]([C@H](C)O)n1cnc2c(N)ncnc21 [(+)-EHNA] |
| 0.1 nM | OC[C@H]1O[C@@H](n2cnc3c2N=CNC[C@H]3O)[C@H](O)[C@@H]1O [COFORMYCIN] |
